Assay results: US4177291A, “Compounds having antidepressive activity” (priority 1976, dated 1979)
Converted amounts (≈) assume the structure as drawn. Read-outs that look alike come from different tables or passages of the source.

Legend:
uptake of 3H-NA [1] = test: Inhibition of uptake of 3H-noradrenaline in vivo (drug given i.p., uptake measured in midbrain slices); conditions: Mus musculus, ip, 0.5 h, mice dosed i.p. half an hour before killing, l-noradrenaline 1×10^-7 M, read-out: Inhibition (50%) of uptake in vivo NA
Protocol: (§1) The method is described by Ross, Renyi and Ogren in European Journal of Pharmacology 17 (1972), 107-112. […] In the in vitro experiments different concentrations of the test compound were added to the incubation medium. In the in vivo experiments different doses of the test drug were administered intraperitoneally half an hour before the animals were killed. The incubation performance was the same in the two types of experiments, i.e. the midbrain was taken out and sliced and incubated in a mixture consisting of, per 100 mg of brain slices, 0.2 n-mole of ^14 C-5-HT, 0.2 n-mole of ^3 H-NA and 11μ mole of glucose in 2 ml of Krebs-Henseleit buffer, pH 7.4. The incubation time was 5 minutes. The radioactive amines taken up in the slices were dissolved in Soluene-350® (Packard) and the amounts were determined with the double labelling technique by liquid scintillation. The concentration or dose producing 50 percent decrease of the active uptake (ED50) was determined graphically from dose response curves. Active uptake is defined as that part of the radioactive uptake which is inhibited by a high concentration of cocaine. All doses were given at least to four animals.

uptake of 14C-5-HT [2] = test: Inhibition of uptake of 14C-5-HT in vitro (mouse midbrain slices); format: cell-based, mice; conditions: 5 min, read-out: Inhibition (50%) of uptake in vitro 5-HT
Protocol: (§2) The method is described by Ross, Renyi and Ogren in European Journal of Pharmacology 17 (1972), 107-112. Tricyclic antidepressant drugs of type imipramine added in vitro or given in vivo to mice decrease the uptake of ^14 C-5-HT and ^3 H-NA in vitro. In the in vitro experiments different concentrations of the test compound were added to the incubation medium. In the in vivo experiments different doses of the test drug were administered intraperitoneally half an hour before the animals were killed. The incubation performance was the same in the two types of experiments, i.e. the midbrain was taken out and sliced and incubated in a mixture consisting of, per 100 mg of brain slices, 0.2 n-mole of ^14 C-5-HT, 0.2 n-mole of ^3 H-NA and 11μ mole of glucose in 2 ml of Krebs-Henseleit buffer, pH 7.4. The incubation time was 5 minutes. The radioactive amines taken up in the slices were dissolved in Soluene-350® (Packard) and the amounts were determined with the double labelling technique by liquid scintillation. The concentration or dose producing 50 percent decrease of the active uptake (ED50) was determined graphically from dose response curves. Active uptake is defined as that part of the radioactive uptake which is inhibited by a high concentration of cocaine. All doses were given at least to four animals.

uptake of 14C-5-HT [3] = test: Inhibition of uptake of 14C-5-HT in vivo (drug given i.p., uptake measured in midbrain slices); conditions: Mus musculus, ip, 0.5 h, mice dosed i.p. half an hour before killing, 5-HT 1×10^-7 M, read-out: Inhibition (50%) of uptake in vivo 5-HT
Protocol: as §1

uptake of 3H-NA [4] = test: Inhibition of uptake of 3H-noradrenaline in vitro (mouse midbrain slices); format: cell-based, mice; conditions: 5 min, compound added to incubation medium, l-noradrenaline 1×10^-7 M, 5 min incubation, ED50 from dose response curves, read-out: Inhibition (50%) of uptake in vitro NA
Protocol: as §2

[5] = system: 5-HTP behavioural syndrome; test: 5-HTP response potentiation test; format: in vivo, mice; conditions: Mus musculus, read-out: Potentiation of 5-HTP effective dose
Protocol: Inhibition of the uptake of 5-HT potentiates the effects of administered 5-hydroxytryptophan (5-HTP) probably by increasing the amount of 5-HT at the receptor. Three mice are given the test drugs one hour (or 4, 24 hours) before dl-5-HTP 90 mg/kg i.v. 5-HTP alone gives only a weak behavioural syndrome but in pretreated mice there is seen a characteristic behavioural syndrome, which comes within five minutes: tremor, lordosis, abduction of the hindlegs, head-twiches. The strength of the syndrome is scored from 0 to +3. Each group consists of 3 animals and at least 4 groups were tested at 25 mg/kg i.p. Control groups receiving imipramine (Tofranil®) are used as reference, since imipramine constantly potentiated dl-5-HTP. The least dose of the test compound producing maximal score (+3) in all animals is estimated from a logarithmic dose-response curve, and is denoted "effective dose" in the following Table.

Compound | ED50 (uptake of 3H-NA [1]) [mg/kg] | IC50 (uptake of 14C-5-HT [2]; compound added to incubation medium, mouse midbrain slices, 5-HT 1×10^-7 M, 5 min incubation, ED50 from dose response curves) [mg/L] | ED50 (uptake of 14C-5-HT [3]) [mg/kg] | IC50 (uptake of 3H-NA [4]) [mg/L] | minimal effective dose ([5]; mice, least dose producing maximal score (+3) in all animals, test drug given before dl-5-HTP 90 mg/kg i.v.) [mg/kg] | IC50 (uptake of 14C-5-HT [2]; Mus musculus) [mg/L] | minimal effective dose [5] [mg/kg]
CC(N)C(=O)CC(C)(C)Cc1ccc(Cl)cc1.Cl (stereo not shown) [GEA 995, 2-amino-6-(4-chlorophenyl)-5,5-dimethyl-3-hexanone hydrochloride] | > 40 | 0.6 | 20 | > 10 | 4 |  | 
CN(C)CCCN1c2ccccc2CCc2ccccc21 [Imipramine, imipramine] | 6 |  | 24 | 0.06 (≈ 0.214 µM) |  | 0.1 (≈ 0.357 µM) | 15
